Assay results as given in US8076159B2, “Ligand-regulable transactivation systems, methods of use thereof, methods of detecting estrogen receptor ligands, and methods of differentiating estrogen receptor ligand agonists and antagonists” (The Board of Trustees of the Leland Stanford Junior …, priority 2006, dated 2011).

Target: T1, GAL4-ER (LBD)-VP16 fusion protein (Homo sapiens, UniProt P03372, G400V)
T1 construct: was used to replace the ER of 281-595; expressed in transfected cells; host or cells: 293T cells (A1, A2, A3, A5)
T1 sequence (P03372 281-595 G400V): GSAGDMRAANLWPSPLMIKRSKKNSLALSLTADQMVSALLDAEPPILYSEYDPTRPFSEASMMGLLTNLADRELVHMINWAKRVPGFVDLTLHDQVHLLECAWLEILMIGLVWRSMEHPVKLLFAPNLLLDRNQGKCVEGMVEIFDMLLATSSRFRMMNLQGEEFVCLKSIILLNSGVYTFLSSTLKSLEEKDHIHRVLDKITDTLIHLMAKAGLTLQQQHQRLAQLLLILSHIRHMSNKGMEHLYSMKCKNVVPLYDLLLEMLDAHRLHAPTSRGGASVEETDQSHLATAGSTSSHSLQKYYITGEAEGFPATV
Experiment: ER-ligand induced transactivation system (GAL4-ER(LBD)-VP16 activator + GAL4-E4-firefly luciferase reporter) in transiently co-transfected 293T cells
Format: cell-based
Text: Cell Transfection and Luciferase Assay. […] Volumes of Lipofectamine were as recommended by the manufacturer.

Compound	fold luciferase signal in comparison to carrier control (1 μM ligand)	transactivation signal relative to carrier control (in words) (1 μM)
C[C@]12CC[C@@H]3c4ccc(O)cc4C[C@@H](CCCCCCCCC[S+]([O-])CCCC(F)(F)C(F)(F)F)[C@H]3[C@@H]1CC[C@@H]2O (some centres unmarked) [ICI]	300±80 fold	–
N.N.[Cl][Pt][Cl] [non-ligand anticancer drug, cisplatinum]	–	not significantly different from the cells exposed to carrier control
